Converted amounts (≈) assume the structure as drawn.
Experiments:
Assay in all cases: microbe, parasite or virus in culture
[1] = tested on: Xanthomonas oryzae pv. oryzae Xoo; settings: read-out: EC50 (mg/L) Xoo
[2] = tested on: Xanthomonas oryzae pv. oryzicola Xoc; settings: read-out: EC50 (mg/L) Xoc
[3] = tested on: Xanthomonas oryzae pv. oryzae Xoo; settings: for inhibition at 10 µg/mL: read-out: Inhibition (%) 10 (mg/L); for inhibition at 50 µg/mL: read-out: Inhibition (%) 50 (mg/L)
[4] = tested on: Xanthomonas oryzae pv. oryzicola Xoc; settings: for inhibition at 10 µg/mL: read-out: Inhibition (%) 10 (mg/L); for inhibition at 50 µg/mL: read-out: Inhibition (%) 50 (mg/L)

Row | SMILES | EC50 [1] | EC50 [2] | inhibition at 10 µg/mL [3] | inhibition at 50 µg/mL [3] | inhibition at 10 µg/mL [4] | inhibition at 50 µg/mL [4]
1 | S=c1[nH]nc(NCNc2n[nH]c(=S)s2)s1 [BT, Bismerthiazol] | 83.1 ± 8.07 mg/L (≈ 298 µM) | 105.9 ± 0.56 mg/L (≈ 380 µM) | 2.5 ± 1.6% | 27.4 ± 5% | 7 ± 1.7% | 27 ± 1.7%
2 | CS(=O)(=O)c1nnc(CNC(=O)C=Cc2cccs2)o1 [compound 1, N-((5-(methylsulfonyl)-1,3,4-oxadiazol-2-yl)methyl)-3-(thiophen-2-yl)acrylamide] | 0.68 ± 0.07 mg/L (≈ 2.17 µM) | 0.86 ± 0.08 mg/L (≈ 2.74 µM) | 96.2 ± 1.5% | 97.6 ± 1.2% | 97.3 ± 1.8% | 98.3 ± 0.9%
3 | CCS(=O)(=O)c1nnc(CNC(=O)C=Cc2cccs2)o1 [compound 2, N-((5-(ethylsulfonyl)-1,3,4-oxadiazol-2-yl)methyl)-3-(thiophen-2-yl)acrylamide] | 0.72 ± 0.07 mg/L (≈ 2.2 µM) | 3.41 ± 0.05 mg/L (≈ 10.4 µM) | 85 ± 4.1% | 90.6 ± 8.6% | 96.9 ± 0.3% | 97.5 ± 0.8%
4 | CS(=O)(=O)c1nnc(CNC(=O)c2ccc(Cl)s2)o1 [compound 3, 5-chloro-N-((5-(methylsulfonyl)-1,3,4-oxadiazol-2-yl)methyl)thiophene-2-car boxamide] | 0.53 ± 0.07 mg/L (≈ 1.65 µM) | 1.06 ± 0.04 mg/L (≈ 3.29 µM) | 98.6 ± 0.8% | 95.8 ± 2.6% | 98 ± 0.2% | 98.3 ± 1.3%
5 | CCS(=O)(=O)c1nnc(CNC(=O)c2ccc(Cl)s2)o1 [compound 4, 5-chloro-N-((5-(ethylsulfonyl)-1,3,4-oxadiazol-2-yl)methyl)thiophene-2-carb oxamide] | 0.45 ± 0.04 mg/L (≈ 1.34 µM) | 0.83 ± 0.01 mg/L (≈ 2.47 µM) | 98.3 ± 1% | 97.9 ± 1.5% | 96.9 ± 1.1% | 99 ± 0.2%
6 | CS(=O)(=O)c1nnc(CNC(=O)c2ccc(Br)o2)o1 [compound 5, 5-bromo-N-((5-(methylsulfonyl)-1,3,4-oxadiazol-2-yl)methyl)furan-2-carbox amide] | 0.48 ± 0.01 mg/L (≈ 1.37 µM) | 2.59 ± 0.05 mg/L (≈ 7.4 µM) | 96.3 ± 2.5% | 96.6 ± 0.4% | 99.3 ± 0.1% | 97.8 ± 2%
7 | CS(=O)(=O)c1nnc(CNC(=O)c2ncc(C(F)(F)F)cc2Cl)o1 [compound 6, 3-chloro-N-((5-(methylsulfonyl)-1,3,4-oxadiazol-2-yl)methyl)-5-(trifluoromethyl)picolinamide] | 3.49 ± 0.07 mg/L (≈ 9.07 µM) | 3.31 ± 0.09 mg/L (≈ 8.6 µM) | 94.8 ± 1.8% | 99.7 ± 0.2% | 95.5 ± 0.8% | 99.3 ± 0.2%
8 | CCS(=O)(=O)c1nnc(CNC(=O)c2ncc(C(F)(F)F)cc2Cl)o1 [compound 7, 3-chloro-N-((5-(ethylsulfonyl)-1,3,4-oxadiazol-2-yl)methyl)-5-(trifluoromethyl)picolinamide] | 7.45 ± 0.16 mg/L (≈ 18.7 µM) | 7.58 ± 0.27 mg/L (≈ 19 µM) | 48.1 ± 0.8% | 99.8 ± 0.1% | 40.1 ± 1.3% | 99.6 ± 0.2%
9 | CS(=O)(=O)c1nnc(CNC(=O)C=Cc2ccccc2)o1 [compound 8, N-((5-(methylsulfonyl)-1,3,4-oxadiazol-2-yl)methyl)cinnamamide] | 0.73 ± 0.08 mg/L (≈ 2.38 µM) | 0.7 ± 0.01 mg/L (≈ 2.28 µM) | 99.7 ± 0.3% | 98.9 ± 0.5% | 98.8 ± 0.7% | 92.3 ± 7.3%
10 | CCS(=O)(=O)c1nnc(CNC(=O)C=Cc2ccccc2)o1 [compound 9, N-((5-(ethylsulfonyl)-1,3,4-oxadiazol-2-yl)methyl)cinnamamide] | 0.89 ± 0.12 mg/L (≈ 2.77 µM) | 0.78 ± 0.01 mg/L (≈ 2.43 µM) | 100% | 97.6 ± 1.4% | 97.1 ± 1.6% | 98 ± 1.7%
11 | CS(=O)(=O)c1nnc(CNC(=O)C=Cc2ccc(F)cc2)o1 [compound 10, 3-(4-fluorophenyl)-N-((5-(methylsulfonyl)-1,3,4-oxadiazol-2-yl)methyl)acrylamide] | 0.36 ± 0.03 mg/L (≈ 1.11 µM) | 0.53 ± 0.01 mg/L (≈ 1.63 µM) | 99 ± 0.3% | 99.5 ± 0.1% | 99 ± 0.8% | 95.6 ± 1%
12 | CCS(=O)(=O)c1nnc(CNC(=O)C=Cc2ccc(F)cc2)o1 [compound 11, N-((5-(ethylsulfonyl)-1,3,4-oxadiazol-2-yl)methyl)-3-(4-fluorophenyl)acrylamide] | 0.72 ± 0.05 mg/L (≈ 2.12 µM) | 10.8 ± 2.91 mg/L (≈ 31.7 µM) | 98.8 ± 0.1% | 99.2 ± 0.4% | 50.6 ± 2.1% | 99 ± 1.3%
13 | Cc1ccc(C=CC(=O)NCc2nnc(S(C)(=O)=O)o2)cc1 [compound 12, N-((5-(methylsulfonyl)-1,3,4-oxadiazol-2-yl)methyl)-3-(p-tolyl)acrylamide] | 0.52 ± 0.04 mg/L (≈ 1.62 µM) | 0.64 ± 0.05 mg/L (≈ 1.99 µM) | 99.5 ± 0.1% | 99.8 ± 0.2% | 96.9 ± 2.3% | 95.6 ± 2.1%
14 | CCS(=O)(=O)c1nnc(CNC(=O)C=Cc2ccc(C)cc2)o1 [compound 13, N-((5-(ethylsulfonyl)-1,3,4-oxadiazol-2-yl)methyl)-3-(p-tolyl)acrylamide] | 0.72 ± 0.07 mg/L (≈ 2.15 µM) | 0.88 ± 0.03 mg/L (≈ 2.62 µM) | 99.5 ± 0.1% | 99.2 ± 0.2% | 98.1 ± 0.6% | 95.8 ± 1.2%
15 | CS(=O)(=O)c1nnc(CNC(=O)C=Cc2ccc(Cl)cc2)o1 [compound 14, 3-(4-chlorophenyl)-N-((5-(methylsulfonyl)-1,3,4-oxadiazol-2-yl)methyl)acrylamide] | 0.43 ± 0.06 mg/L (≈ 1.26 µM) | 0.61 ± 0.03 mg/L (≈ 1.78 µM) | 97.6 ± 0.8% | – | 98.8 ± 0.7% | 98.2 ± 1.1%
16 | CCS(=O)(=O)c1nnc(CNC(=O)C=Cc2ccc(Cl)cc2)o1 [compound 15, 3-(4-chlorophenyl)-N-((5-(ethylsulfonyl)-1,3,4-oxadiazol-2-yl)methyl)acrylamide] | 0.43 ± 0.04 mg/L (≈ 1.21 µM) | 1.45 ± 0.05 mg/L (≈ 4.08 µM) | 98.1 ± 0.6% | 98.3 ± 0.2% | 97.9 ± 0.4% | 98.9 ± 0.3%
17 | CS(=O)(=O)c1nnc(CNC(=O)C=Cc2ccc(Cl)cc2Cl)o1 [compound 16, 3-(2,4-dichlorophenyl)-N-((5-(methylsulfonyl)-1,3,4-oxadiazol-2-yl)methyl)a crylamide] | 0.42 ± 0.05 mg/L (≈ 1.12 µM) | 1.15 ± 0.05 mg/L (≈ 3.06 µM) | 98.9 ± 0.3% | 99 ± 0.4% | 99.2 ± 0.7% | 97.7 ± 0.7%
18 | CC(=CC(=O)NCc1nnc(S(C)(=O)=O)o1)c1ccccc1 [compound 17, N-((5-(methylsulfonyl)-1,3,4-oxadiazol-2-yl)methyl)-3-phenylbut-2-enamide] | 0.54 ± 0.04 mg/L (≈ 1.68 µM) | 5.21 ± 0.11 mg/L (≈ 16.2 µM) | 99.4 ± 0.5% | 99.7 ± 0.4% | 67.7 ± 0.9% | 94.7 ± 0.9%
19 | Cc1ccc(C(=O)NCc2nnc(S(C)(=O)=O)o2)c(C)c1 [compound 18, 2,4-dimethyl-N-((5-(methylsulfonyl)-1,3,4-oxadiazol-2-yl)methyl)benzamide] | 0.69 ± 0.04 mg/L (≈ 2.23 µM) | 1.74 ± 0.11 mg/L (≈ 5.62 µM) | 98.8 ± 0.2% | 98.2 ± 1.4% | 98.9 ± 1% | 96.9 ± 0.2%
20 | CCS(=O)(=O)c1nnc(CNC(=O)c2ccc(C)cc2C)o1 [compound 19, N-((5-(ethylsulfonyl)-1,3,4-oxadiazol-2-yl)methyl)-2,4-dimethylbenzamide] | 1.08 ± 0.11 mg/L (≈ 3.34 µM) | 1.69 ± 0.18 mg/L (≈ 5.23 µM) | 97.2 ± 1.4% | 98.1 ± 0.8% | 98.2 ± 1% | 95.8 ± 0.8%
21 | Cc1ccc(C(=O)NCc2nnc(S(C)(=O)=O)o2)cc1 [compound 20, 4-methyl-N-((5-(methylsulfonyl)-1,3,4-oxadiazol-2-yl)methyl)benzamide] | 0.63 ± 0.06 mg/L (≈ 2.13 µM) | 1.66 ± 0.21 mg/L (≈ 5.62 µM) | 99.4 ± 0.3% | 99.6 ± 0.3% | 67.8 ± 6.8% | 99 ± 0.9%
22 | CS(=O)(=O)c1nnc(CNC(=O)c2c(F)cccc2F)o1 [compound 21, 2,6-difluoro-N-((5-(methylsulfonyl)-1,3,4-oxadiazol-2-yl)methyl)benzamide] | 0.65 ± 0.05 mg/L (≈ 2.05 µM) | 1.51 ± 0.02 mg/L (≈ 4.76 µM) | 97.4 ± 0.3% | 96.3 ± 0.4% | 97.1 ± 2.3% | 98.4 ± 1.1%
23 | CS(=O)(=O)c1nnc(CNC(=O)c2ccc(C(F)(F)F)cc2)o1 [compound 22, N-((5-(methylsulfonyl)-1,3,4-oxadiazol-2-yl)methyl)-4-(trifluoromethyl)benz amide] | 0.72 ± 0.05 mg/L (≈ 2.06 µM) | 1.7 ± 0.09 mg/L (≈ 4.87 µM) | 99.7 ± 0.2% | 99.9 ± 0.1% | 90.3 ± 5.5% | 99.3 ± 0.3%
24 | CS(=O)(=O)c1nnc(CNC(=O)c2ccc(F)cc2F)o1 [compound 23, 2,4-difluoro-N-((5-(methylsulfonyl)-1,3,4-oxadiazol-2-yl)methyl)benzamide] | 0.8 ± 0.09 mg/L (≈ 2.52 µM) | 7.41 ± 1.3 mg/L (≈ 23.4 µM) | 95.7 ± 1.9% | 95.4 ± 0.4% | 69.6 ± 1.8% | 99.5 ± 0.4%
25 | CS(=O)(=O)c1nnc(CNC(=O)c2ccc(Cl)cc2)o1 [compound 24, 4-chloro-N-((5-(methylsulfonyl)-1,3,4-oxadiazol-2-yl)methyl)benzamide] | 0.4 ± 0.03 mg/L (≈ 1.27 µM) | 0.9 ± 0.04 mg/L (≈ 2.85 µM) | 99.9 ± 0.1% | 99.6 ± 0.2% | 96.9 ± 0.4% | 97.8 ± 2.7%
26 | CCS(=O)(=O)c1nnc(CNC(=O)c2ccc(Cl)cc2)o1 [compound 25, 4-chloro-N-((5-(ethylsulfonyl)-1,3,4-oxadiazol-2-yl)methyl)benzamide] | 0.82 ± 0.05 mg/L (≈ 2.49 µM) | 0.94 ± 0.09 mg/L (≈ 2.85 µM) | – | 99.2 ± 0.3% | 99.6 ± 0.3% | 98.8 ± 1%
